# Measurements reported in patent publication US20070128217A1 (priority 2003, published 2007).
# Tests used:
# [1] = tested on: rabbit serum obtained by immunizing a rabbit with the SARS-CoV strain Frankfurt 1; format: binding; design: Binding of a rabbit serum to linear peptides / Binding of a rabbit serum to looped peptides / Rabbit serum linear peptides / Rabbit serum looped peptides / Binding of a rabbit serum to linear peptides of protein N of SARS-CoV Urbani (Rabbit serum linear peptides) / Binding of a rabbit serum to looped/cyclic peptides of protein N of SARS-CoV Urbani (Rabbit serum looped peptides): unit not given here
# [2] = tested on: antibodies in sera from SARS patients (sera 1a, 1b, 2, 6, 37, 62, London, SARS-yellow, SARS-green); format: binding, human; design: Binding of serum 6 to linear peptides of protein X1 of SARS-CoV Urbani / Binding of serum 37 to linear peptides of protein X1 of SARS-CoV Urbani / Binding of serum 6 to looped/cyclic peptide (PEPSCAN-ELISA) / Binding of serum 37 to looped/cyclic peptide (PEPSCAN-ELISA) / Binding of serum 37 to looped/cyclic peptides of protein X1 of SARS-CoV Urbani / Binding of serum 6 to linear peptides of protein X2 / Binding of serum 37 to linear peptides of protein X2 / Binding of serum 37 to looped/cyclic peptides of protein X2 of SARS-CoV Urbani / Binding of serum 6 to linear peptides of protein M of SARS-CoV Urbani / Binding of serum 37 to linear peptides of protein M of SARS-CoV Urbani / Binding of serum 6 to looped/cyclic peptides of protein M of SARS-CoV Urbani / Binding of serum 37 to looped/cyclic peptides of protein M of SARS-CoV Urbani / Binding of serum 6 to linear peptides of protein X3 of SARS-CoV Urbani / Binding of serum 37 to linear peptides of protein X3 of SARS-CoV Urbani / Binding of serum 37 to looped/cyclic peptides of protein X3 of SARS-CoV Urbani / Binding of serum 6 to linear peptides of protein X4 of SARS-CoV Urbani / Binding of serum 37 to linear peptides of protein X4 of SARS-CoV Urbani / Binding of serum 37 to looped/cyclic peptides of protein X4 of SARS-CoV Urbani / Binding of serum 6 to linear peptides of protein X5 of SARS-CoV Urbani / Binding of serum 37 to linear peptides of protein X5 of SARS-CoV Urbani / Binding of serum 37 to looped/cyclic peptides of protein X5 of SARS-CoV Urbani / Binding of serum 6 to linear peptides of protein N of SARS-CoV Urbani / Binding of serum 37 to linear peptides of protein N of SARS-CoV Urbani / Binding of serum 6 to linear peptide (PEPSCAN-ELISA) / Binding of serum 1a to looped/cyclic peptides of protein N of SARS-CoV Urbani / Binding of serum 1b to looped/cyclic peptides of protein N of SARS-CoV Urbani / Binding of serum 2 to looped/cyclic peptides of protein N of SARS-CoV Urbani / Binding of serum 6 to looped/cyclic peptides of protein N of SARS-CoV Urbani / Binding of serum 37 to looped/cyclic peptides of protein N of SARS-CoV Urbani / Binding of serum 62 to looped/cyclic peptides of protein N of SARS-CoV Urbani / Binding of serum London to looped/cyclic peptides of protein N of SARS-CoV Urbani / Binding of serum SARS-green to looped/cyclic peptides of protein N of SARS-CoV Urbani: unit not given here
# [3] = tested on: control sera (pooled serum of ten healthy LUMC hospital workers; commercial negative donor pooled serum from the Dutch bloodbank); format: binding, human; design: Binding of Control serum LUMC to linear peptides / Binding of Control serum Blood-bank to linear peptides / Binding of Control serum LUMC to looped peptides / Binding of Control Serum Blood-Bank to Looped peptides / Binding of Control serum LUMC to linear peptides of the protein M of SARS-CoV Urbani / Binding of Control serum Blood-bank to linear peptides of the protein M of SARS-CoV Urbani / Binding of Control serum LUMC to looped peptides of the protein M of SARS-CoV Urbani / Binding of Control Serum Blood-Bank to Looped peptides of the protein M of SARS-CoV Urbani: unit not given here
sequence,measurement,setting,value
FRLFARTRSMWSFNP,Rabbit serum linear peptides,[1],0.2
same,Rabbit serum looped peptides,[1],0.2
same,Binding of serum 1a to linear peptides of protein M of SARS-CoV Urbani,[2],0.8
same,Binding of serum 1a to looped/cyclic peptides of protein M of SARS-CoV Urbani,[2],0.7
same,Binding of serum 1b to linear peptides of protein M of SARS-CoV Urbani,[2],0.5
same,Binding of serum 1b to looped/cyclic peptides of protein M of SARS-CoV Urbani,[2],0.5
same,Binding of serum 2 to linear peptides of protein M of SARS-CoV Urbani,[2],0.6
same,Binding of serum 2 to looped/cyclic peptides of protein M of SARS-CoV Urbani,[2],0.6
same,Binding of serum 6 to linear peptides of protein M of SARS-CoV Urbani,[2],0.5
same,Binding of serum 6 to looped/cyclic peptides of protein M of SARS-CoV Urbani,[2],0.8
same,Binding of serum 37 to linear peptides of protein M of SARS-CoV Urbani,[2],0.5
same,Binding of serum 37 to looped/cyclic peptides of protein M of SARS-CoV Urbani,[2],0.6
same,Binding of serum 62 to linear peptides of protein M of SARS-CoV Urbani,[2],0.5
same,Binding of serum 62 to looped/cyclic peptides of protein M of SARS-CoV Urbani,[2],0.6
same,Binding of serum London to linear peptides of protein M of SARS-CoV Urbani,[2],0.4
same,Binding of serum London to looped/cyclic peptides of protein M of SARS-CoV Urbani,[2],0.3
same,Binding of serum SARS-green to linear peptides of protein M of SARS-CoV Urbani,[2],0.6
same,Binding of serum SARS-green to looped/cyclic peptides of protein M of SARS-CoV Urbani,[2],0.3
same,Binding of serum SARS-yellow to linear peptides of protein M of SARS-CoV Urbani,[2],0.2
same,Binding of serum SARS-yellow to looped/cyclic peptides of protein M of SARS-CoV Urbani,[2],0.5
same,Binding of Control Serum Blood-Bank to Looped peptides of the protein M of SARS-CoV Urbani,[3],0.8
same,Binding of Control serum Blood-bank to linear peptides of the protein M of SARS-CoV Urbani,[3],0.8
same,Binding of Control serum LUMC to linear peptides of the protein M of SARS-CoV Urbani,[3],0.8
same,Binding of Control serum LUMC to looped peptides of the protein M of SARS-CoV Urbani,[3],0.6
FTEVYYQLESTQITT,Binding of a rabbit serum to linear peptides,[1],0.1
same,Binding of a rabbit serum to looped peptides,[1],0.5
same,Binding of serum 1a to linear peptides of protein X1 of SARS-CoV Urbani,[2],0.8
same,Binding of serum 1a to looped/cyclic peptides of protein X1 of SARS-CoV Urbani,[2],0.5
same,Binding of serum 1b to linear peptides of protein X1 of SARS-CoV Urbani,[2],0.7
same,Binding of serum 1b to looped/cyclic peptides of protein X1 of SARS-CoV Urbani,[2],0.5
same,Binding of serum 2 to linear peptides of protein X1 of SARS-CoV Urbani,[2],0.5
same,Binding of serum 2 to looped/cyclic peptides of protein X1 of SARS-CoV Urbani,[2],0.4
same,Binding of serum 6 to linear peptides of protein X1 of SARS-CoV Urbani,[2],0.5
same,Binding of serum 6 to looped/cyclic peptides of protein X1 of SARS-CoV Urbani,[2],0.4
same,Binding of serum 37 to linear peptides of protein X1 of SARS-CoV Urbani,[2],0.7
same,Binding of serum 37 to looped/cyclic peptides of protein X1 of SARS-CoV Urbani,[2],0.7
same,Binding of serum 62 to linear peptides of protein X1 of SARS-CoV Urbani,[2],0.7
same,Binding of serum 62 to looped/cyclic peptides of protein X1 of SARS-CoV Urbani,[2],0.5
same,Binding of serum London to linear peptides of protein X1 of SARS-CoV Urbani,[2],0.3
same,Binding of serum London to looped/cyclic peptides of protein X1 of SARS-CoV Urbani,[2],0.2
same,Binding of serum SARS-green to linear peptides of protein X1 of SARS-CoV Urbani,[2],0.5
same,Binding of serum SARS-green to looped/cyclic peptides of protein X1 of SARS-CoV Urbani,[2],0.3
same,Binding of serum SARS-yellow to linear peptides of protein X1 of SARS-CoV Urbani,[2],0.5
same,Binding of serum SARS-yellow to looped/cyclic peptides of protein X1 of SARS-CoV Urbani,[2],0.4
same,Binding of Control Serum Blood-Bank to Looped peptides,[3],0.6
same,Binding of Control serum Blood-bank to linear peptides,[3],0.6
same,Binding of Control serum LUMC to linear peptides,[3],0.5
same,Binding of Control serum LUMC to looped peptides,[3],0.6
FTSCELYHYQECVRG,Rabbit serum linear peptides,[1],0.4
same,Rabbit serum looped peptides,[1],0.3
same,Binding of serum 1a to linear peptides of protein X4 of SARS-CoV Urbani,[2],0.8
same,Binding of serum 1a to looped/cyclic peptides of protein X4 of SARS-CoV Urbani,[2],0.8
same,Binding of serum 1b to linear peptides of protein X4 of SARS-CoV Urbani,[2],0.7
same,Binding of serum 1b to looped/cyclic peptides of protein X4 of SARS-CoV Urbani,[2],0.7
same,Binding of serum 2 to linear peptides of protein X4 of SARS-CoV Urbani,[2],0.5
same,Binding of serum 2 to looped/cyclic peptides of protein X4 of SARS-CoV Urbani,[2],0.6
same,Binding of serum 6 to linear peptides of protein X4 of SARS-CoV Urbani,[2],0.9
same,Binding of serum 6 to looped/cyclic peptides of protein X4 of SARS-CoV Urbani,[2],0.6
same,Binding of serum 37 to linear peptides of protein X4 of SARS-CoV Urbani,[2],0.8
same,Binding of serum 37 to looped/cyclic peptides of protein X4 of SARS-CoV Urbani,[2],0.8
same,Binding of serum 62 to linear peptides of protein X4 of SARS-CoV Urbani,[2],0.8
same,Binding of serum 62 to looped/cyclic peptides of protein X4 of SARS-CoV Urbani,[2],0.7
same,Binding of serum London to linear peptides of protein X4 of SARS-CoV Urbani,[2],0.9
same,Binding of serum London to looped/cyclic peptides of protein X4 of SARS-CoV Urbani,[2],0.3
same,Binding of serum SARS-green to linear peptides of protein X4 of SARS-CoV Urbani,[2],0.5
same,Binding of serum SARS-green to looped/cyclic peptides of protein X4 of SARS-CoV Urbani,[2],0.6
same,Binding of serum SARS-yellow to linear peptides of protein X4 of SARS-CoV Urbani,[2],0.3
same,Binding of serum SARS-yellow to looped/cyclic peptides of protein X4 of SARS-CoV Urbani,[2],0.5
same,Binding of Control Serum Blood-Bank to Looped peptides,[3],0.8
same,Binding of Control serum Blood-bank to linear peptides,[3],0.7
same,Binding of Control serum LUMC to linear peptides,[3],0.7
same,Binding of Control serum LUMC to looped peptides,[3],0.8
FTTSLSLHKLLQTLV,Binding of a rabbit serum to linear peptides,[1],0.1
same,Binding of a rabbit serum to looped peptides,[1],0.9
same,Binding of serum 1a to linear peptides of protein X2,[2],0.5
same,Binding of serum 1a to looped/cyclic peptides of protein X2 of SARS-CoV Urbani,[2],2.1
same,Binding of serum 1b to linear peptides of protein X2,[2],0.5
same,Binding of serum 1b to looped/cyclic peptides of protein X2 of SARS-CoV Urbani,[2],2.5
same,Binding of serum 2 to linear peptides of protein X2,[2],0.4
same,Binding of serum 2 to looped/cyclic peptides of protein X2 of SARS-CoV Urbani,[2],1.2
same,Binding of serum 6 to linear peptides of protein X2,[2],0.6
same,Binding of serum 6 to looped/cyclic peptides of protein X2 of SARS-CoV Urbani,[2],0.8
same,Binding of serum 37 to linear peptides of protein X2,[2],0.5
same,Binding of serum 37 to looped/cyclic peptides of protein X2 of SARS-CoV Urbani,[2],1.3
same,Binding of serum 62 to linear peptides of protein X2,[2],0.5
same,Binding of serum 62 to looped/cyclic peptides of protein X2 of SARS-CoV Urbani,[2],1.7
same,Binding of serum London to linear peptides of protein X2,[2],0.4
same,Binding of serum London to looped/cyclic peptides of protein X2 of SARS-CoV Urbani,[2],1.0
same,Binding of serum SARS-green to linear peptides of protein X2,[2],0.5
same,Binding of serum SARS-green to looped/cyclic peptides of protein X2 of SARS-CoV Urbani,[2],1.7
same,Binding of serum SARS-yellow to linear peptides of protein X2,[2],0.4
same,Binding of serum SARS-yellow to looped/cyclic peptides of protein X2 of SARS-CoV Urbani,[2],1.3
same,Binding of Control Serum Blood-Bank to Looped peptides,[3],2.0
same,Binding of Control serum Blood-bank to linear peptides,[3],0.6
same,Binding of Control serum LUMC to linear peptides,[3],0.5
same,Binding of Control serum LUMC to looped peptides,[3],1.6
FVASFRLFARTRSMW,Rabbit serum linear peptides,[1],0.2
same,Rabbit serum looped peptides,[1],0.3
same,Binding of serum 1a to linear peptides of protein M of SARS-CoV Urbani,[2],0.9
same,Binding of serum 1b to linear peptides of protein M of SARS-CoV Urbani,[2],1.1
same,Binding of serum 2 to linear peptides of protein M of SARS-CoV Urbani,[2],0.7
same,Binding of serum 6 to linear peptides of protein M of SARS-CoV Urbani,[2],1.3
same,Binding of serum 37 to linear peptides of protein M of SARS-CoV Urbani,[2],0.6
same,Binding of serum 62 to linear peptides of protein M of SARS-CoV Urbani,[2],0.6
same,Binding of serum London to linear peptides of protein M of SARS-CoV Urbani,[2],0.9
same,Binding of serum SARS-green to linear peptides of protein M of SARS-CoV Urbani,[2],0.7
same,Binding of serum SARS-yellow to linear peptides of protein M of SARS-CoV Urbani,[2],0.3
same,"Recognition of the peptide by sera of SARS-CoV infected individuals, and form (linear, looped/cyclic) in which it is recognized",[2],recognized in looped/cyclic form
same,Binding of Control Serum Blood-Bank to Looped peptides of the protein M of SARS-CoV Urbani,[3],0.6
same,Binding of Control serum Blood-bank to linear peptides of the protein M of SARS-CoV Urbani,[3],0.9
same,Binding of Control serum LUMC to linear peptides of the protein M of SARS-CoV Urbani,[3],1.0
same,Binding of Control serum LUMC to looped peptides of the protein M of SARS-CoV Urbani,[3],0.7
